{"source": "BigSolDB 2.1", "data": [{"compound": "CCCCS(=O)(=O)N[C@@H](Cc1ccc(OCCCCC2CCNCC2)cc1)C(=O)O", "values": [{"measurement": "solubility (mole fraction)", "setting": "in ethanol, 278.15 K", "value": 0.000129}, {"measurement": "solubility (mole fraction)", "setting": "in ethanol, 283.15 K", "value": 0.000156}, {"measurement": "solubility (mole fraction)", "setting": "in ethanol, 288.15 K", "value": 0.000183}, {"measurement": "solubility (mole fraction)", "setting": "in ethanol, 293.15 K", "value": 0.000216}, {"measurement": "solubility (mole fraction)", "setting": "in ethanol, 298.15 K", "value": 0.00025}, {"measurement": "solubility (mole fraction)", "setting": "in ethanol, 303.15 K", "value": 0.000288}, {"measurement": "solubility (mole fraction)", "setting": "in ethanol, 308.15 K", "value": 0.000329}, {"measurement": "solubility (mole fraction)", "setting": "in ethanol, 313.15 K", "value": 0.000373}, {"measurement": "solubility (mole fraction)", "setting": "in ethanol, 318.15 K", "value": 0.000427}, {"measurement": "solubility (mole fraction)", "setting": "in ethanol, 323.15 K", "value": 0.00049}, {"measurement": "solubility (mole fraction)", "setting": "in ethylene glycol, 278.15 K", "value": "4.7e-05"}, {"measurement": "solubility (mole fraction)", "setting": "in ethylene glycol, 283.15 K", "value": "5.7e-05"}, {"measurement": "solubility (mole fraction)", "setting": "in ethylene glycol, 288.15 K", "value": "6.77e-05"}, {"measurement": "solubility (mole fraction)", "setting": "in ethylene glycol, 293.15 K", "value": "8.02e-05"}, {"measurement": "solubility (mole fraction)", "setting": "in ethylene glycol, 298.15 K", "value": "9.46e-05"}, {"measurement": "solubility (mole fraction)", "setting": "in ethylene glycol, 303.15 K", "value": 0.000109}, {"measurement": "solubility (mole fraction)", "setting": "in ethylene glycol, 308.15 K", "value": 0.000125}, {"measurement": "solubility (mole fraction)", "setting": "in ethylene glycol, 313.15 K", "value": 0.000142}, {"measurement": "solubility (mole fraction)", "setting": "in ethylene glycol, 318.15 K", "value": 0.00016}, {"measurement": "solubility (mole fraction)", "setting": "in ethylene glycol, 323.15 K", "value": 0.000181}, {"measurement": "solubility (mole fraction)", "setting": "in isopropanol, 278.15 K", "value": "7.48e-05"}, {"measurement": "solubility (mole fraction)", "setting": "in isopropanol, 283.15 K", "value": "9.32e-05"}, {"measurement": "solubility (mole fraction)", "setting": "in isopropanol, 288.15 K", "value": 0.000108}, {"measurement": "solubility (mole fraction)", "setting": "in isopropanol, 293.15 K", "value": 0.00013}, {"measurement": "solubility (mole fraction)", "setting": "in isopropanol, 298.15 K", "value": 0.000153}, {"measurement": "solubility (mole fraction)", "setting": "in isopropanol, 303.15 K", "value": 0.000176}, {"measurement": "solubility (mole fraction)", "setting": "in isopropanol, 308.15 K", "value": 0.0002}, {"measurement": "solubility (mole fraction)", "setting": "in isopropanol, 313.15 K", "value": 0.00023}, {"measurement": "solubility (mole fraction)", "setting": "in isopropanol, 318.15 K", "value": 0.000265}, {"measurement": "solubility (mole fraction)", "setting": "in isopropanol, 323.15 K", "value": 0.000301}, {"measurement": "solubility (mole fraction)", "setting": "in methanol, 278.15 K", "value": 0.000306}, {"measurement": "solubility (mole fraction)", "setting": "in methanol, 283.15 K", "value": 0.000375}, {"measurement": "solubility (mole fraction)", "setting": "in methanol, 288.15 K", "value": 0.000443}, {"measurement": "solubility (mole fraction)", "setting": "in methanol, 293.15 K", "value": 0.00052}, {"measurement": "solubility (mole fraction)", "setting": "in methanol, 298.15 K", "value": 0.000617}, {"measurement": "solubility (mole fraction)", "setting": "in methanol, 303.15 K", "value": 0.00071}, {"measurement": "solubility (mole fraction)", "setting": "in methanol, 308.15 K", "value": 0.000836}, {"measurement": "solubility (mole fraction)", "setting": "in methanol, 313.15 K", "value": 0.000957}, {"measurement": "solubility (mole fraction)", "setting": "in methanol, 318.15 K", "value": 0.0011}, {"measurement": "solubility (mole fraction)", "setting": "in methanol, 323.15 K", "value": 0.00125}, {"measurement": "solubility (mole fraction)", "setting": "in water, 278.15 K", "value": "9.32e-07"}, {"measurement": "solubility (mole fraction)", "setting": "in water, 283.15 K", "value": "1.1e-06"}, {"measurement": "solubility (mole fraction)", "setting": "in water, 288.15 K", "value": "1.32e-06"}, {"measurement": "solubility (mole fraction)", "setting": "in water, 293.15 K", "value": "1.55e-06"}, {"measurement": "solubility (mole fraction)", "setting": "in water, 298.15 K", "value": "1.83e-06"}, {"measurement": "solubility (mole fraction)", "setting": "in water, 303.15 K", "value": "2.08e-06"}, {"measurement": "solubility (mole fraction)", "setting": "in water, 308.15 K", "value": "2.42e-06"}, {"measurement": "solubility (mole fraction)", "setting": "in water, 313.15 K", "value": "2.75e-06"}, {"measurement": "solubility (mole fraction)", "setting": "in water, 318.15 K", "value": "3.14e-06"}, {"measurement": "solubility (mole fraction)", "setting": "in water, 323.15 K", "value": "3.59e-06"}]}]}
